Measurements: ChEMBL document CHEMBL1201862, “PubChem BioAssay data set” (2004)
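Method: 48-hour compound exposure of cells in 96-well plates, five concentrations, linear interpolation of endpoints. GI50 marks 50% less growth.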 Activity calls are given as the source filed them. Cut-off read from the data, not from the text of the source: active = GI50 up to about 1.1 µM and inactive = higher.

What was measured:
Experiment in all cases: NCI tumour cell line growth inhibition, 48 h
A498 = system: A498
K562 = system: K562
Malme-3M = system: Malme-3M
IGROV-1 = system: IGROV-1
MOLT-4 = system: MOLT-4
NCI-H226 = system: NCI-H226
MDA-MB-231 = system: MDA-MB-231
KM12 = system: KM12
TK-10 = system: TK-10
HCT-15 = system: HCT-15
SN12C = system: SN12C
HCC 2998 = system: HCC 2998
NCI-H23 = system: NCI-H23
OVCAR-5 = system: OVCAR-5
BT-549 = system: BT-549
MDA-MB-435 = system: MDA-MB-435
SK-MEL-28 = system: SK-MEL-28
PC-3 = system: PC-3
HOP-62 = system: HOP-62
MDA-N = system: MDA-N
SW-620 = system: SW-620
NCI/ADR-RES = system: NCI/ADR-RES
HOP-92 = system: HOP-92
A549 = system: A549
HCT-116 = system: HCT-116
CAKI-1 = system: CAKI-1
OVCAR-4 = system: OVCAR-4
SK-OV-3 = system: SK-OV-3
RPMI-8226 = system: RPMI-8226
EKVX = system: EKVX
MCF7 = system: MCF7
Hs-578T = system: Hs-578T
OVCAR-8 = system: OVCAR-8
HL-60 = system: HL-60
NCI-H522 = system: NCI-H522
SNB-19 = system: SNB-19
T47D = system: T47D
M14 = system: M14
UO-31 = system: UO-31
ACHN = system: ACHN
OVCAR-3 = system: OVCAR-3
UACC-257 = system: UACC-257
UACC-62 = system: UACC-62
SF-295 = system: SF-295
COLO 205 = system: COLO 205
LOX IMVI = system: LOX IMVI
SK-MEL-5 = system: SK-MEL-5
786-0 = system: 786-0
SK-MEL-2 = system: SK-MEL-2
U-251 = system: U-251
HT-29 = system: HT-29
RXF 393 = system: RXF 393
SF-268 = system: SF-268
DU-145 = system: DU-145
SR = system: SR
NCI-H460 = system: NCI-H460
CCRF-CEM = system: CCRF-CEM
SF-539 = system: SF-539
SNB-75 = system: SNB-75

For `CCC1c2[nH]c3ccccc3c2C[C@H]2C(=O)N3CCC[C@H]3C(=O)N12` (stereo not given in full), the GI50 (A498) was > 100 µM (inactive), the GI50 (K562) was > 100 µM (inactive) and the GI50 (Malme-3M) was 42.5 µM (inactive). The GI50 (IGROV-1) was > 100 µM (inactive), the GI50 (MOLT-4) was 97.7 µM (inactive) and the GI50 (NCI-H226) was > 100 µM (inactive). The GI50 (MDA-MB-231) was > 100 µM (inactive), the GI50 (KM12) was 71.1 µM (inactive) and the GI50 (TK-10) was > 100 µM (inactive). For the same molecule, the GI50 (HCT-15) was 53.7 µM, the GI50 (SN12C) was > 100 µM (inactive) and the GI50 (HCC 2998) was > 100 µM (inactive). The GI50 (NCI-H23) was > 100 µM (inactive), the GI50 (OVCAR-5) was > 100 µM (inactive) and the GI50 (BT-549) was > 100 µM (inactive). For the same molecule, the GI50 (MDA-MB-435) was > 100 µM (inactive), the GI50 (SK-MEL-28) was > 100 µM (inactive) and the GI50 (PC-3) was 37.4 µM (inactive). The GI50 (HOP-62) was > 100 µM (inactive), the GI50 (MDA-N) was > 100 µM (inactive) and the GI50 (SW-620) was 92.9 µM (inactive). For the same molecule, the GI50 (NCI/ADR-RES) was > 100 µM (inactive), the GI50 (HOP-92) was > 100 µM (inactive) and the GI50 (A549) was > 100 µM (inactive). For the same molecule, the GI50 (HCT-116) was 60.7 µM (inactive), the GI50 (CAKI-1) was > 100 µM (inactive) and the GI50 (OVCAR-4) was > 100 µM (inactive). The GI50 (SK-OV-3) was > 100 µM (inactive), the GI50 (RPMI-8226) was 50.9 µM (inactive) and the GI50 (EKVX) was > 100 µM (inactive). The GI50 (MCF7) was > 100 µM (inactive), the GI50 (Hs-578T) was > 100 µM (inactive) and the GI50 (OVCAR-8) was > 100 µM (inactive). For the same molecule, the GI50 (HL-60) was > 100 µM (inactive), the GI50 (NCI-H522) was 75.7 µM (inactive) and the GI50 (SNB-19) was > 100 µM (inactive). For the same molecule, the GI50 (T47D) was 67.8 µM (inactive), the GI50 (M14) was > 100 µM (inactive) and the GI50 (UO-31) was > 100 µM (inactive). The GI50 (ACHN) was > 100 µM (inactive), the GI50 (OVCAR-3) was > 100 µM (inactive) and the GI50 (UACC-257) was 48.6 µM (inactive). For the same molecule, the GI50 (UACC-62) was 70.6 µM (inactive), the GI50 (SF-295) was > 100 µM (inactive) and the GI50 (COLO 205) was > 100 µM (inactive). For the same molecule, the GI50 (LOX IMVI) was > 100 µM (inactive), the GI50 (SK-MEL-5) was 30.4 µM (inactive) and the GI50 (786-0) was > 100 µM (inactive). The GI50 (SK-MEL-2) was > 100 µM (inactive), the GI50 (U-251) was 92.5 µM (inactive) and the GI50 (HT-29) was > 100 µM (inactive). The GI50 (RXF 393) was > 100 µM (inactive), the GI50 (SF-268) was > 100 µM (inactive) and the GI50 (DU-145) was > 100 µM (inactive). The GI50 (SR) was 59.3 µM (inactive).
`CC1(C)OC2C(CO)OC(n3ccc(=O)[nH]c3=O)C2O1` (stereo not given) was tested, and the GI50 (A498) was > 100 µM (inactive), the GI50 (K562) was > 100 µM (inactive) and the GI50 (IGROV-1) was > 100 µM (inactive). The GI50 (MOLT-4) was > 100 µM (inactive), the GI50 (NCI-H226) was > 100 µM (inactive) and the GI50 (MDA-MB-231) was > 100 µM (inactive). The GI50 (TK-10) was > 100 µM (inactive), the GI50 (HCT-15) was > 100 µM and the GI50 (SN12C) was > 100 µM (inactive). For the same molecule, the GI50 (HCC 2998) was > 100 µM (inactive), the GI50 (NCI-H23) was > 100 µM (inactive) and the GI50 (OVCAR-5) was > 100 µM (inactive). For the same molecule, the GI50 (BT-549) was > 100 µM (inactive), the GI50 (MDA-MB-435) was > 100 µM (inactive) and the GI50 (SK-MEL-28) was > 100 µM (inactive). The GI50 (PC-3) was > 100 µM (inactive), the GI50 (HOP-62) was > 100 µM (inactive) and the GI50 (MDA-N) was > 100 µM (inactive). For the same molecule, the GI50 (SW-620) was > 100 µM (inactive), the GI50 (NCI/ADR-RES) was > 100 µM (inactive) and the GI50 (HOP-92) was 83.2 µM (inactive). The GI50 (A549) was > 100 µM (inactive), the GI50 (HCT-116) was > 100 µM (inactive) and the GI50 (CAKI-1) was > 100 µM (inactive). The GI50 (SK-OV-3) was > 100 µM (inactive), the GI50 (RPMI-8226) was > 100 µM (inactive) and the GI50 (EKVX) was > 100 µM (inactive). For the same molecule, the GI50 (MCF7) was > 100 µM (inactive), the GI50 (Hs-578T) was > 100 µM (inactive) and the GI50 (OVCAR-8) was > 100 µM (inactive). The GI50 (HL-60) was > 100 µM (inactive), the GI50 (NCI-H522) was > 100 µM (inactive) and the GI50 (SNB-19) was > 100 µM (inactive). The GI50 (T47D) was > 100 µM (inactive), the GI50 (M14) was > 100 µM (inactive) and the GI50 (UO-31) was > 100 µM (inactive). The GI50 (ACHN) was > 100 µM (inactive), the GI50 (OVCAR-3) was > 100 µM (inactive) and the GI50 (UACC-257) was > 100 µM (inactive). The GI50 (UACC-62) was > 100 µM (inactive), the GI50 (SF-295) was > 100 µM (inactive) and the GI50 (COLO 205) was > 100 µM (inactive). For the same molecule, the GI50 (LOX IMVI) was > 100 µM (inactive), the GI50 (SK-MEL-5) was > 100 µM (inactive) and the GI50 (786-0) was > 100 µM (inactive). The GI50 (SK-MEL-2) was > 100 µM (inactive), the GI50 (NCI-H460) was > 100 µM (inactive) and the GI50 (U-251) was > 100 µM (inactive). For the same molecule, the GI50 (RXF 393) was > 100 µM (inactive), the GI50 (SF-268) was > 100 µM (inactive) and the GI50 (CCRF-CEM) was > 100 µM (inactive). The GI50 (DU-145) was > 100 µM (inactive), the GI50 (SR) was > 100 µM (inactive) and the GI50 (SF-539) was > 100 µM (inactive).
For `C(=N\c1nc2cc3sc(/N=C/c4cccs4)nc3cc2s1)/c1cccs1`, the GI50 (A498) was > 100 µM (inactive), the GI50 (K562) was > 100 µM (inactive) and the GI50 (Malme-3M) was > 100 µM (inactive). For the same molecule, the GI50 (IGROV-1) was > 100 µM (inactive), the GI50 (MOLT-4) was 28.3 µM (inactive) and the GI50 (NCI-H226) was 28.4 µM (inactive). For the same molecule, the GI50 (MDA-MB-231) was > 100 µM (inactive), the GI50 (KM12) was > 100 µM (inactive) and the GI50 (TK-10) was 26.2 µM (inactive). The GI50 (HCT-15) was 73.5 µM, the GI50 (SN12C) was 72.9 µM (inactive) and the GI50 (NCI-H23) was 69.2 µM (inactive). For the same molecule, the GI50 (OVCAR-5) was > 100 µM (inactive), the GI50 (BT-549) was > 100 µM (inactive) and the GI50 (MDA-MB-435) was > 100 µM (inactive). The GI50 (SK-MEL-28) was > 100 µM (inactive), the GI50 (PC-3) was > 100 µM (inactive) and the GI50 (HOP-62) was > 100 µM (inactive). The GI50 (MDA-N) was > 100 µM (inactive), the GI50 (NCI/ADR-RES) was > 100 µM (inactive) and the GI50 (HOP-92) was > 100 µM (inactive). For the same molecule, the GI50 (A549) was 11.5 µM (inactive), the GI50 (HCT-116) was > 100 µM (inactive) and the GI50 (CAKI-1) was > 100 µM (inactive). For the same molecule, the GI50 (OVCAR-4) was > 100 µM (inactive), the GI50 (SK-OV-3) was > 100 µM (inactive) and the GI50 (RPMI-8226) was > 100 µM (inactive). The GI50 (EKVX) was 34.4 µM (inactive), the GI50 (MCF7) was 33.4 µM (inactive) and the GI50 (Hs-578T) was > 100 µM (inactive). The GI50 (OVCAR-8) was > 100 µM (inactive), the GI50 (HL-60) was 79.6 µM (inactive) and the GI50 (NCI-H522) was 45.2 µM (inactive). The GI50 (SNB-19) was > 100 µM (inactive), the GI50 (T47D) was > 100 µM (inactive) and the GI50 (M14) was > 100 µM (inactive). The GI50 (UO-31) was > 100 µM (inactive), the GI50 (ACHN) was > 100 µM (inactive) and the GI50 (OVCAR-3) was > 100 µM (inactive). For the same molecule, the GI50 (UACC-257) was 70.1 µM (inactive), the GI50 (SF-295) was > 100 µM (inactive) and the GI50 (COLO 205) was 3.4 µM (inactive). The GI50 (LOX IMVI) was 66.5 µM (inactive), the GI50 (SK-MEL-5) was 33 µM (inactive) and the GI50 (786-0) was > 100 µM (inactive). The GI50 (SK-MEL-2) was > 100 µM (inactive), the GI50 (NCI-H460) was 5.36 µM (inactive) and the GI50 (U-251) was > 100 µM (inactive). For the same molecule, the GI50 (HT-29) was 44.8 µM (inactive), the GI50 (RXF 393) was > 100 µM (inactive) and the GI50 (SF-268) was > 100 µM (inactive). For the same molecule, the GI50 (SNB-75) was > 100 µM (inactive), the GI50 (CCRF-CEM) was 11.5 µM (inactive) and the GI50 (DU-145) was > 100 µM (inactive). For the same molecule, the GI50 (SR) was 26.1 µM (inactive) and the GI50 (SF-539) was > 100 µM (inactive).
